# Source: EP4603105A1, “PHARMACEUTICAL COMPOSITION CONTAINING CYCLIC COMPOUND HAVING SELECTIVE KRAS INHIBITORY EFFECT AGAINST HRAS AND NRAS” (CHUGAI SEIYAKU KABUSHIKI KAISHA, priority 2022, dated 2024)
# Tests used:
# HRAS wild-type protein = HRAS wild-type protein (Homo sapiens, UniProt P01112); assay: Binding to HRAS by surface plasmon resonance (SPR), KD and KD ratio to KRAS; settings: ratio of KD for HRAS wild-type protein to KD for KRAS
# How it was run: (§1)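 Running buffer contained 10 µM GDP and 10 mM MgCl2 to keep RAS in the GDP state, with 4% DMSO at pH 7.4. Compounds were flowed at 100 µL/min in 75 s steps of rising concentration over captured biotin-Avi RAS at 30°C. Sensorgrams were fitted 1:1 for KD.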
# [1] = target: GDP-bound NRAS wild-type protein (Homo sapiens, UniProt P01111); assay: Binding to NRAS by surface plasmon resonance (SPR), KD and KD ratio to KRAS; settings: ratio of KD for GDP-bound NRAS wild-type protein to KD for KRAS
# How it was run: as §1
# [2] = system: human lung cancer strain NCI-H441; format: cell-based
# How it was run: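 Step one: dispense the test compound in serial DMSO dilutions. Step three: add the reagent and measure […].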
# Sequence of HRAS wild-type protein (P01112 whole entry): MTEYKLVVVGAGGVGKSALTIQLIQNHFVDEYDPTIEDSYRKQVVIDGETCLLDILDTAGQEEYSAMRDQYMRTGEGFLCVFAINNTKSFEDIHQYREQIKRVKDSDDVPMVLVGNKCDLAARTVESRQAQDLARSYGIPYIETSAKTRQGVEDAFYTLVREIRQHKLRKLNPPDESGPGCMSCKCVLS
# Sequence of GDP-bound NRAS wild-type protein (P01111 whole entry): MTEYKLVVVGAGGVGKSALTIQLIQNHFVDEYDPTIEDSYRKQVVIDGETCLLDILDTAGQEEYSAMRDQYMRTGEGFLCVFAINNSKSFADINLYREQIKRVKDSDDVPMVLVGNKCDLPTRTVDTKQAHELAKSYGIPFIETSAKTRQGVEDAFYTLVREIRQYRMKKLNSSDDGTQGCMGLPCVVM
structure (smiles),measurement,setting,value
CCO[C@@H]1C[C@H]2C(=O)NC3(CC(C)(C)C3)C(=O)N(C)[C@@H](C(CC)CC)C(=O)N(C)[C@H](C(=O)N(C)C)CC(=O)N(C)[C@H]3CCCC/C=C/c4ccc(cc4)C[C@@H](C(=O)N(C)CC(=O)N[C@@H](CCc4ccc(Cl)c(Cl)c4)C(=O)N2C1)N1CC/C=C\C[C@@H](C1=O)N(C)C(=O)CN(C)C(=O)[C@H]([C@@H](C)CC)NC3=O [PP3045],HRAS /KRAS,HRAS wild-type protein,A (a compound having 10 or more and less than 20 is denoted as A)
same,NRAS /KRAS,[1],AA (a compound having 20 or more is denoted as AA)
same,IC50,[2],15.9 nM
CCO[C@@H]1C[C@H]2C(=O)NC3(CCC3)C(=O)N(C)[C@@H](C(CC)CC)C(=O)N(C)[C@H](C(=O)N3CCCCC3)CC(=O)N(C)[C@H]3CCCC/C=C/c4ccc(cc4)C[C@@H](C(=O)N(C)CC(=O)N[C@@H](CCc4ccc(Cl)c(Cl)c4)C(=O)N2C1)N1CC/C=C\C[C@@H](C1=O)N(C)C(=O)CN(C)C(=O)[C@H]([C@@H](C)CC)NC3=O [PP3046],HRAS /KRAS,HRAS wild-type protein,A (a compound having 10 or more and less than 20 is denoted as A)
same,NRAS /KRAS,[1],AA (a compound having 20 or more is denoted as AA)
same,IC50,[2],16.7 nM
CCO[C@@H]1C[C@H]2C(=O)NC3(CCC3)C(=O)N(C)[C@@H](C(CC)CC)C(=O)N(C)[C@H](C(=O)N3CCCC3)CC(=O)N(C)[C@H]3CCCC/C=C/c4ccc(cc4)C[C@@H](C(=O)N(C)CC(=O)N[C@@H](CCc4ccc(Cl)c(Cl)c4)C(=O)N2C1)N1CC/C=C\C[C@@H](C1=O)N(C)C(=O)CN(C)C(=O)[C@H]([C@@H](C)CC)NC3=O [PP3047],HRAS /KRAS,HRAS wild-type protein,A (a compound having 10 or more and less than 20 is denoted as A)
same,NRAS /KRAS,[1],AA (a compound having 20 or more is denoted as AA)
same,IC50,[2],6.1 nM
CCO[C@@H]1C[C@H]2C(=O)NC3(CC(C)(C)C3)C(=O)N(C)[C@@H](C(CC)CC)C(=O)N(C)[C@H](C(=O)N(C)C)CC(=O)N(C)[C@H]3CCCCC/C=C/c4ccc(cc4)C[C@@H](C(=O)N(C)CC(=O)N[C@@H](CCc4cc(F)c(C(F)(F)F)c(F)c4)C(=O)N2C1)N1CC/C=C\C[C@@H](C1=O)N(C)C(=O)CN(C)C(=O)[C@H]([C@@H](C)CC)NC3=O [PP3048],HRAS /KRAS,HRAS wild-type protein,A (a compound having 10 or more and less than 20 is denoted as A)
same,NRAS /KRAS,[1],A (a compound having 10 or more and less than 20 is denoted as A)
same,IC50,[2],11.1 nM
CCO[C@@H]1C[C@H]2C(=O)NC3(CCC3)C(=O)N(C)[C@@H](C3CCCC3)C(=O)N(C)[C@H](C(=O)N3CCCC3)CC(=O)N(C)[C@H]3CCCCC/C=C/c4ccc(cc4)C[C@@H](C(=O)N(C)CC(=O)N[C@@H](CCc4ccc(Cl)c(Cl)c4)C(=O)N2C1)N1CC/C=C\C[C@@H](C1=O)N(C)C(=O)CN(C)C(=O)[C@H]([C@@H](C)CC)NC3=O [PP3049],HRAS /KRAS,HRAS wild-type protein,A (a compound having 10 or more and less than 20 is denoted as A)
same,NRAS /KRAS,[1],AA (a compound having 20 or more is denoted as AA)
same,IC50,[2],12.6 nM
CCO[C@@H]1C[C@H]2C(=O)NC3(CC(C)(C)C3)C(=O)N(C)[C@@H](C(CC)CC)C(=O)N(C)[C@H](C(=O)N(C)C)CC(=O)N(C)[C@H]3CCCCC/C=C/c4ccc(cc4)C[C@@H](C(=O)N(C)CC(=O)N[C@@H](CCc4ccc(Cl)c(Cl)c4)C(=O)N2C1)N1CC/C=C\C[C@@H](C1=O)N(C)C(=O)CN(C)C(=O)[C@H]([C@@H](C)CC)NC3=O [PP3050],HRAS /KRAS,HRAS wild-type protein,A (a compound having 10 or more and less than 20 is denoted as A)
same,NRAS /KRAS,[1],AA (a compound having 20 or more is denoted as AA)
same,IC50,[2],19.3 nM
CCO[C@@H]1C[C@H]2C(=O)NC3(CCC3)C(=O)N(C)[C@@H](C(CC)CC)C(=O)N(C)[C@H](C(=O)N3CCCCC3)CC(=O)N(C)[C@H]3CCCCC/C=C/c4ccc(cc4)C[C@@H](C(=O)N(C)CC(=O)N[C@@H](CCc4ccc(Cl)c(Cl)c4)C(=O)N2C1)N1CC/C=C\C[C@@H](C1=O)N(C)C(=O)CN(C)C(=O)[C@H]([C@@H](C)CC)NC3=O [PP3051],HRAS /KRAS,HRAS wild-type protein,A (a compound having 10 or more and less than 20 is denoted as A)
same,NRAS /KRAS,[1],AA (a compound having 20 or more is denoted as AA)
same,IC50,[2],42.1 nM
CCO[C@@H]1C[C@H]2C(=O)NC3(CCC3)C(=O)N(C)[C@@H](C(CC)CC)C(=O)N(C)[C@H](C(=O)N3CCCC3)CC(=O)N(C)[C@H]3CCCCC/C=C/c4ccc(cc4)C[C@@H](C(=O)N(C)CC(=O)N[C@@H](CCc4ccc(Cl)c(Cl)c4)C(=O)N2C1)N1CC/C=C\C[C@@H](C1=O)N(C)C(=O)CN(C)C(=O)[C@H]([C@@H](C)CC)NC3=O [PP3052],HRAS /KRAS,HRAS wild-type protein,A (a compound having 10 or more and less than 20 is denoted as A)
same,NRAS /KRAS,[1],AA (a compound having 20 or more is denoted as AA)
same,IC50,[2],27.6 nM
CC[C@H](C)[C@@H]1NC(=O)[C@@H]2CCC/C=C/c3ccc(cc3)C[C@@H](C(=O)N(C)CC(=O)N[C@@H](CCc3ccc(Cl)c(Cl)c3)C(=O)N3C[C@H](OC4CCC4)C[C@H]3C(=O)NC3(CC(C)(C)C3)C(=O)N(C)[C@@H](C3CCCC3)C(=O)N(C)[C@H](C(=O)N3CCCC3)CC(=O)N2C)N2CC/C=C\C[C@@H](C2=O)N(C)C(=O)CN(C)C1=O [PP3053],HRAS /KRAS,HRAS wild-type protein,A (a compound having 10 or more and less than 20 is denoted as A)
same,NRAS /KRAS,[1],A (a compound having 10 or more and less than 20 is denoted as A)
same,IC50,[2],27 nM
CC[C@H](C)[C@@H]1NC(=O)[C@@H]2CCC/C=C/c3ccc(cc3)C[C@@H](C(=O)N(C)CC(=O)N[C@@H](CCc3ccc(Cl)c(Cl)c3)C(=O)N3C[C@H](OC4CCCC4)C[C@H]3C(=O)NC3(CC(C)(C)C3)C(=O)N(C)[C@@H](C3CCCC3)C(=O)N(C)[C@H](C(=O)N3CCCC3)CC(=O)N2C)N2CC/C=C\C[C@@H](C2=O)N(C)C(=O)CN(C)C1=O [PP3054],HRAS /KRAS,HRAS wild-type protein,A (a compound having 10 or more and less than 20 is denoted as A)
same,NRAS /KRAS,[1],A (a compound having 10 or more and less than 20 is denoted as A)
same,IC50,[2],38.4 nM
CCO[C@@H]1C[C@H]2C(=O)N(C)C3(CC(C)(C)C3)C(=O)N(C)[C@@H](C3CCCC3)C(=O)N(C)[C@H](C(=O)N(C)C)CC(=O)N(C)[C@H]3CCC/C=C/c4ccc(cc4)C[C@@H](C(=O)N(C)CC(=O)N[C@@H](CCc4cc(F)c(C(F)(F)F)c(F)c4)C(=O)N2C1)N1CC/C=C\C[C@@H](C1=O)N(C)C(=O)CN(C)C(=O)[C@H]([C@@H](C)CC)NC3=O [PP3060],HRAS /KRAS,HRAS wild-type protein,B (a compound having 3 or more and less than 10 is denoted as B)
same,NRAS /KRAS,[1],B (a compound having 3 or more and less than 10 is denoted as B)
same,IC50,[2],2.7 nM
CCO[C@@H]1C[C@H]2C(=O)N(C)C3(CC(C)(C)C3)C(=O)N(C)[C@@H](C3CCCC3)C(=O)N(C)[C@H](C(=O)N(C)C)CC(=O)N(C)[C@H]3CCCC/C=C/c4ccc(cc4)C[C@@H](C(=O)N(C)CC(=O)N[C@@H](CCc4ccc(Cl)c(Cl)c4)C(=O)N2C1)N1CC/C=C\C[C@@H](C1=O)N(C)C(=O)CN(C)C(=O)[C@H]([C@@H](C)CC)NC3=O [PP3062],HRAS /KRAS,HRAS wild-type protein,A (a compound having 10 or more and less than 20 is denoted as A)
same,NRAS /KRAS,[1],A (a compound having 10 or more and less than 20 is denoted as A)
same,IC50,[2],6.3 nM
CCCO[C@@H]1C[C@H]2C(=O)NC3(CC(C)(C)C3)C(=O)N(C)[C@@H](C(CC)CC)C(=O)N(C)[C@H](C(=O)N(C)C)CC(=O)N(C)[C@H]3CCCc4ccc(cc4)C[C@@H](C(=O)N(C)CC(=O)N[C@@H](CCc4ccc(C(F)(F)F)c(OC)c4)C(=O)N2C1)N1CC/C=C\C[C@@H](C1=O)N(C)C(=O)CN(C)C(=O)[C@H]([C@@H](C)CC)NC3=O [PP3063],HRAS /KRAS,HRAS wild-type protein,B (a compound having 3 or more and less than 10 is denoted as B)
same,NRAS /KRAS,[1],B (a compound having 3 or more and less than 10 is denoted as B)
same,IC50,[2],32.2 nM
CCCO[C@@H]1C[C@H]2C(=O)NC3(CC(C)(C)C3)C(=O)N(C)[C@@H](C3CCCC3)C(=O)N(C)[C@H](C(=O)N3CCCCC3)CC(=O)N(C)[C@H]3CCCc4ccc(cc4)C[C@@H](C(=O)N(C)CC(=O)N[C@@H](CCc4ccc(C(F)(F)F)c(OC)c4)C(=O)N2C1)N1CC/C=C\C[C@@H](C1=O)N(C)C(=O)CN(C)C(=O)[C@H]([C@@H](C)CC)NC3=O [PP3064],HRAS /KRAS,HRAS wild-type protein,B (a compound having 3 or more and less than 10 is denoted as B)
same,NRAS /KRAS,[1],B (a compound having 3 or more and less than 10 is denoted as B)
same,IC50,[2],26.9 nM
CCCO[C@@H]1C[C@H]2C(=O)NC3(CC(C)(C)C3)C(=O)N(C)[C@@H](C3CCCC3)C(=O)N(C)[C@H](C(=O)N3CCCC3)CC(=O)N(C)[C@H]3CCCc4ccc(cc4)C[C@@H](C(=O)N(C)CC(=O)N[C@@H](CCc4ccc(C(F)(F)F)c(OC)c4)C(=O)N2C1)N1CC/C=C\C[C@@H](C1=O)N(C)C(=O)CN(C)C(=O)[C@H]([C@@H](C)CC)NC3=O [PP3065],HRAS /KRAS,HRAS wild-type protein,B (a compound having 3 or more and less than 10 is denoted as B)
same,NRAS /KRAS,[1],A (a compound having 10 or more and less than 20 is denoted as A)
same,IC50,[2],27.3 nM
CCO[C@@H]1C[C@H]2C(=O)NC3(CC(C)(C)C3)C(=O)N(C)[C@@H](C3CCCC3)C(=O)N(C)[C@H](C(=O)N(C)C)CC(=O)N(C)[C@H]3CCCCCCc4ccc(cc4)C[C@@H](C(=O)N(C)CC(=O)N[C@@H](CCc4ccc(C(F)(F)F)c(OC)c4)C(=O)N2C1)N1CC/C=C\C[C@@H](C1=O)N(C)C(=O)CN(C)C(=O)[C@H]([C@@H](C)CC)NC3=O [PP3066],HRAS /KRAS,HRAS wild-type protein,B (a compound having 3 or more and less than 10 is denoted as B)
same,NRAS /KRAS,[1],A (a compound having 10 or more and less than 20 is denoted as A)
same,IC50,[2],2.2 nM
